Marks after values point to notes of the source that are not given here.
Key:
VSMC-E1A = assay: Chromatin cleavage assay in VSMC-E1A; assay type: cell-based, rat
Protocol: FIG. 2. Effect of ouabain on chromatin cleavage in VSMC-E1A. (A) Kinetics of the accumulation of chromatin fragments in control (curves 1, 3) and ouabain-treated (curves 2, 4) VSMC-E1A in the presence of 10% calf serum (CS, curves 1, 2) or in CS-free medium (curves 3, 4). Mean values ±S.E. obtained in experiments performed in quadruplicate are given. (B) Content of chromatin fragments in VSMC-E1A subjected to 6 hr of incubation in serum-supplied medium with or without 1 mM ouabain, 0.25 μM staurosporine, 1 μM okadaic acid and 350 mM mannitol. Mean values±S.E. obtained in 3 experiments performed in quadruplicate are given. ★, ★★ p<0.05 and 0.001 compared to ouabain-untreated cells. In both experiments, ouabain was added 1 hour before triggering of apoptosis.
Cells were incubated in K^+-containing medium consisting of 91 mM NaCl, 5 mM KCl, 0.9 mM NaH2PO4, 44 mM NaHCO3, 1.8 mM CaCl2, 0.8 mM MgCl2, 33 mM HEPES and 5 mM D-glucose (pH 7.4) (lines 1 and 2) or in K^+-depleted medium (equimolar substitution of KCl by NaCl, line 3) with or without 10% calf serum (CS) and 1 mM ouabain as indicated. In experiments with VSMC-MYC and VSMC-E1A, cells were preincubated for 1 hr with ouabain or with K^+-depleted medium in the presence of CS and then subjected to treatment with serum-free media. After 24 hours (VSMC) or 6 hours (VSMC-MYC and VSMC-E1A), the content of chromatin fragments was measured as described in Experimental Procedures. Mean values±S.E. obtained in 3 experiments performed in quadruplicate (VSMC) or triplicate (VSMC-MYC, VSMC-E1A) are given. ★, ★★ p<0.05 and 0.001 compared to the controls.
To estimate chromatin cleavage, cells were incubated for 1 hr in the presence of 10% calf serum (CS) in the control solution (DMEM, [Na^+]=137 mM; [K^+]=5 mM—line 1) or under equimolar substitution of NaCl by KCl ([Na^+]=14 mM; [K^+]=128 mM—line 2) with or without 1 mM ouabain and then for an additional 6 hours in the same media with or without CS. Intracellular Na^+ and K^+ content was measured as steady-state distribution of isotopes after 24 hours preincubation of cells in control Na^+-enriched solution containing 0.5 μCi/ml ^86Rb or 2 μCilml ^22Na, and additional 6 hours incubation in Na^+—(line 1) or K^+—(line 2) enriched medium, containing 10% CS and isotopes with the same specific activity with or without 1 mM ouabain. For more details see Experimental Procedures. Mean values±S.E. obtained in 3 experiments performed in triplicate (ion content) or quadruplicate (chromatin cleavage) are given. ★p<0.001 compared to ouabain-untreated cells.
VSMC-E1A cells were pretreated with compounds indicated in the left column during 2 hours in DMEM containing 10% calf serum and then additional 3 hours in the absence or presence of calf serum. The increment of the content of chromatin fragments triggered by serum withdrawal in control cells was taken as 100%. Means+S.E. from experiments performed with quadruplicate are given. ★p<0.001 as compared to control.
Cells. VSMC were obtained by explant methods from aortas of 10- to 13-week-old male rats as described previously (17), cultured in DMEM with 10% calf serum, 100 U/ml penicillin, 100 µg/ml streptomycin and used between 10 to 16 passages. Cells transfected with c-myc (VSMC-MYC) and E1A-adenovirus (VSMC-E1A) were obtained in accordance with a previously-described protocol (18,19) and were cultured in the same medium with the addition of 500 µg/ml genticin. Jurkat cells were obtained from the American Type Culture Collection and cultured in RPMI 1640 medium supplied with 10% calf serum, antibiotics, sodium pyruvate, glutamate and β-mercaptoethanol.
Chromatin cleavage assay. Chromatin cleavage in VSMC was estimated by a technique described previously in detail (10). Briefly, VSMC grown in 24-well dishes were labeled for 24 hours in serum-supplied DMEM with [^3H]-thymidine (1 μCi/ml), washed with 2×2 ml of DMEM and incubated in serum-supplied DMEM. […]

VSMC = assay: LDH release (necrosis marker) in VSMC; assay type: cell-based, rat
Protocol: VSMC growing in 6-well (LDH release) or 24-well (chromatin cleavage assay) plates were preincubated for 3 hours with or without 1 mM ouabain. In part of the experiments, the cells were subjected to 30 min incubation at 46° C. (heat-treated cells, line 3). They were then incubated in the absence or presence of 10% calf serum during additional 8 hr and chromatin cleavage and LDH release were measured as indicated in Experimental Procedures and with a spectrophotometric kit (Sigma), respectively. Means±S.E. from experiments performed in triplicate (LDH release) or quadruplicate (chromatin cleavage) are given. ★, ★★ p<0.05 and 0.001 compared to ouabain-untreated cells. #p<0.001 compared to serum-supplied, heat-untreated cells.

`C[C@@H]1O[C@@H](O[C@H]2C[C@@H](O)[C@]3(CO)[C@H]4[C@H](O)C[C@]5(C)[C@@H](C6=CC(=O)OC6)CC[C@]5(O)[C@@H]4CC[C@]3(O)C2)[C@H](O)[C@H](O)[C@H]1O` [Ouabain, 1β,3β,5,11α,14,19-hexahydroxycard 20 [22]-enolide 3-[6-deoxy-α-L-mannopyrano-sidel]] was tested, and the “apoptosis triggered by staurosporine and okadaic acid” value (VSMC-E1A; VSMC-E1A, 1 mM ouabain, FIG. 2b) was “blocked”, the “Increment of chromatin fragments triggered by serum withdrawal(%)” value (VSMC-E1A; VSMC-E1A, 1 mM, pretreated 2 hours then 3 hours with or without calf serum, control increment taken as 100%) was 21 ± 3 % and the “Chromatin fragments (%)” value (VSMC-E1A; VSMC-E1A, 10% CS, 1 mM ouabain, 1 hr preincubation, 6 hours) was 1.5 ± 0.3 %. For the same molecule, the “Chromatin fragments (%)” value (VSMC-E1A; VSMC-E1A, CS-free, 1 mM ouabain, 1 hr preincubation, 6 hours) was 5.7 ± 0.6 %, the “baseline and serum withdrawal-induced chromatin cleavage” value (VSMC-E1A; VSMC-E1A, ouabain added 1 hour before, FIG. 2a) was “blocked baseline as well as serum withdrawal-induced chromatin cleavage” and the “Chromatin fragments (%)” value (VSMC-E1A; ouabain-treated VSMC-E1A, 1 mM, 10% CS, medium [Na+]o=14, [K+]o=128 mM, 1 hr + 6 hours) was 5.0%. For the same molecule, the “Chromatin fragments (%)” value (VSMC-E1A; ouabain-treated VSMC-E1A, 1 mM, 10% CS, medium [Na+]o=137, [K+]o=5 mM, 1 hr + 6 hours) was 1.9%, the “Chromatin fragments (%)” value (VSMC-E1A; ouabain-treated VSMC-E1A, 1 mM, CS-free, medium [Na+]o=14, [K+]o=128 mM, 1 hr + 6 hours) was 32.0% and the “Chromatin fragments (%)” value (VSMC-E1A; ouabain-treated VSMC-E1A, 1 mM, CS-free, medium [Na+]o=137, [K+]o=5 mM, 1 hr + 6 hours) was 6.3%. For the same molecule, the LDH release (VSMC; VSMC, 8 hours incubation with ouabain) was “did not observe any significant effect”, the “heat stress-induced LDH-release” value (VSMC; VSMC, heat stress 46° C., 30 min, ouabain) was “did not observe modulation” and the “LDH release (%)” value (VSMC; serum-deprived VSMC, 3 hours preincubation 1 mM ouabain, additional 8 hr) was 1.8 ± 0.4%. For the same molecule, the “LDH release (%)” value (VSMC; serum-supplied VSMC, 3 hours preincubation 1 mM ouabain, additional 8 hr) was 1.2 ± 0.3% and the “LDH release (%)” value (VSMC; serum-supplied, heat-treated (46° C., 30 min) VSMC, 1 mM ouabain, 8 hr) was 11.0 ± 2.8# %.

With `OC[C@@H](O)[C@@H](O)[C@H](O)[C@H](O)CO` [mannitol] the “chromatin cleavage under hyperosmotic shrinkage” value (VSMC-E1A; control and ouabain-treated VSMC-E1A, 350 mM mannitol, 6 hr) was “insensitive to hyperosmotic shrinkage”.

With `CN[C@@H]1C[C@H]2O[C@@](C)([C@@H]1OC)n1c3ccccc3c3c4c(c5c6ccccc6n2c5c31)C(=O)NC4` [staurosporine] the “content of chromatin fragments” value (VSMC-E1A; VSMC-E1A, 6 hr, serum-supplied medium, 0.25 μM staurosporine, 1 μM okadaic acid) was 30.1±4.7%.

Source: patent publication US6699676B1, “Uses of ouabain and ouabain-like molecules in apoptosis related pathologies” (Corporation du Centre de Recherche du Centre, Hospitalier …, priority 1999, dated 2004)
